Activity calls are given as the source filed them. The calls are words filed in the database; no cut-off is given here.
What was measured:
HeLa [1] = test: Induction of autophagy in human HeLa cells with siRNA-mediated RPS6 knockdown assessed as upregulation of LC3 expression at 4 uM incubated for 48 hrs by Western blot analysis; assay type: functional, cell-based
Cell membrane [2] = test: Disruption of lysosomal membrane in human HeLa cells assessed as decrease in fluorescence intensity at 2 to 8 uM incubated for 48 hrs by lyso-tracker red dye based fluorescence microscopic analysis; assay type: cell membranes; conditions: dose 2-8 µM
HeLa [3] = test: Induction of apoptosis in human HeLa cells assessed as upregulation of cleaved caspase-3 expression incubated for 48 hrs by Western blot analysis; assay type: functional, cell-based
HeLa [4] = test: Induction of autophagy in human HeLa cells assessed as downregulation of AKT expression at 2 to 8 uM incubated for 48 hrs by Western blot analysis; assay type: functional, cell-based; conditions: dose 2-8 µM
HeLa [5] = test: Induction of autophagy in human HeLa cells assessed as upregulation of Beclin-1 expression incubated for 48 hrs by immunofluorescence assay; assay type: functional, cell-based
[6] = molecular target: Small ribosomal subunit protein eS6 (Homo sapiens) (UniProt P62753); test: Inhibition of RPS6 in human HeLa cells assessed as downregulation of RPS6 phosphorylation at 2 to 8 uM incubated for 48 hrs by Western blot analysis; assay type: cell-based; conditions: dose 2-8 µM
[7] = molecular target: Small ribosomal subunit protein eS6 (Homo sapiens) (UniProt P62753); test: Binding affinity to RPS6 in human HeLa cells assessed as stabilization of protein at 100 uM at 70 degreeC by cellular thermal shift assay; assay type: cell-based
HeLa [8] = test: Antitumor activity against human HeLa cells xenografted in BALB/c mouse assessed as reduction in tumor weight at 15 to 60 mg/kg,ip once daily for 14 days; assay type: functional, organism-based; conditions: dose 15-60 mg/kg, time 14.0 day
HeLa [9] = test: Induction of autophagy in human HeLa cells assessed as downregulation of PI3K expression at 2 to 8 uM incubated for 48 hrs by Western blot analysis; assay type: functional, cell-based; conditions: dose 2-8 µM
HeLa [10] = test: Antitumor activity against human HeLa cells xenografted in BALB/c mouse assessed as reduction in tumor volume at 15 to 60 mg/kg,ip once daily for 14 days; assay type: functional, organism-based; conditions: dose 15-60 mg/kg, time 14.0 day
HeLa [11] = test: Induction of autophagy in human HeLa cells assessed as downregulation of mTOR phosphorylation at 2 to 8 uM incubated for 48 hrs by Western blot analysis; assay type: functional, cell-based; conditions: dose 2-8 µM
HeLa [12] = test: Induction of apoptosis in human HeLa cells assessed as upregulation of cleaved PARP expression incubated for 48 hrs by Western blot analysis; assay type: functional, cell-based
HeLa [13] = test: Inhibition of cell invasion in human HeLa cells at 2 to 8 uM incubated for 48 hrs by crystal violet staining based transwell invasion assay; assay type: functional; conditions: dose 2-8 µM
Cell membrane [14] = test: Induction of mitochondrial membrane potential loss in human HeLa cells assessed as decrease in red fluorescence at 2 to 8 uM incubated for 48 hrs by JC-1 staining based flow cytometry; conditions: dose 2-8 µM
HeLa [15] = test: Inhibition of cell migration in human HeLa cells incubated for 48 hrs by scratch wound healing assay; assay type: functional, cell-based
HeLa [16] = test: Inhibition of colony formation in human HeLa cells at 2 to 8 uM incubated for 2 weeks by crystal violet staining based microscopic analysis; assay type: functional, cell-based; conditions: dose 2-8 µM
HeLa [17] = test: Induction of autophagy in human HeLa cells assessed as upregulation of LC3 expression incubated for 48 hrs by immunofluorescence assay; assay type: functional, cell-based
[18] = molecular target: Small ribosomal subunit protein eS6 (Homo sapiens) (UniProt P62753); test: Binding affinity to RPS6 in human HeLa cells assessed as increase in protein abundance in presence of pronase by DARTS assay; assay type: cell-based
HeLa [19] = test: Induction of autophagy in human HeLa cells assessed as downregulation of mTOR expression at 2 to 8 uM incubated for 48 hrs by Western blot analysis; assay type: functional, cell-based; conditions: dose 2-8 µM
HeLa [20] = test: Induction of apoptosis in human HeLa cells assessed as upregulation of Bax expression incubated for 48 hrs by Western blot analysis; assay type: functional, cell-based
[21] = molecular target: Small ribosomal subunit protein eS6 (Homo sapiens) (UniProt P62753); test: Inhibition of RPS6 in human HeLa cells assessed as downregulation of RPS6 expression at 2 to 8 uM incubated for 48 hrs by Western blot analysis; assay type: cell-based; conditions: dose 2-8 µM
HeLa [22] = test: Induction of autophagy in human HeLa cells assessed as upregulation of LC3 expression at 2 to 8 uM incubated for 48 hrs by Western blot analysis; assay type: functional, cell-based; conditions: dose 2-8 µM
HeLa [23] = test: Induction of autophagy in human HeLa cells assessed as downregulation of SQSTM1/p62 expression at 2 to 8 uM incubated for 48 hrs by Western blot analysis; assay type: functional, cell-based; conditions: dose 2-8 µM
HeLa [24] = test: Induction of autophagy in human HeLa cells assessed as increase in number of MDC-positive cells incubated for 48 hrs by MDC staining based fluorescence microscopic analysis; assay type: functional, cell-based
HeLa [25] = test: Induction of cell cycle arrest in human HeLa cells at 2 to 8 uM; assay type: functional, cell-based; conditions: dose 2-8 µM
Cell membrane [26] = test: Disruption of mitochondrial membrane in human HeLa cells assessed as decrease in fluorescence intensity at 2 to 8 uM incubated for 48 hrs by mito-tracker green dye based fluorescence microscopic analysis; assay type: cell membranes; conditions: dose 2-8 µM
HeLa [27] = test: Induction of autophagy in human HeLa cells assessed as downregulation of PI3K phosphorylation at 2 to 8 uM incubated for 48 hrs by Western blot analysis; assay type: functional, cell-based; conditions: dose 2-8 µM
HeLa [28] = test: Induction of autophagy in human HeLa cells assessed as downregulation of AKT phosphorylation at 2 to 8 uM incubated for 48 hrs by Western blot analysis; assay type: functional, cell-based; conditions: dose 2-8 µM
HeLa [29] = test: Induction of autophagy in human HeLa cells with siRNA-mediated RPS6 knockdown assessed as upregulation of Beclin-1 expression at 4 uM incubated for 48 hrs by Western blot analysis; assay type: functional, cell-based
HeLa [30] = test: Induction of apoptosis in human HeLa cells assessed as upregulation of p53 expression incubated for 48 hrs by Western blot analysis; assay type: functional, cell-based
HeLa [31] = test: Antitumor activity against human HeLa cells xenografted in BALB/c mouse assessed as necrotic cells in tumor at 15 to 60 mg/kg,ip once daily for 14 days; assay type: functional, organism-based; conditions: dose 15-60 mg/kg, time 14.0 day
HeLa [32] = test: Induction of autophagy in human HeLa cells assessed as upregulation of Beclin-1 expression at 2 to 8 uM incubated for 48 hrs by Western blot analysis; assay type: functional, cell-based; conditions: dose 2-8 µM
HeLa [33] = test: Induction of autophagy in human HeLa cells with siRNA-mediated RPS6 knockdown assessed as downregulation of SQSTM1/p62 expression at 4 uM incubated for 48 hrs by Western blot analysis; assay type: functional, cell-based
HeLa [34] = test: Induction of endoplasmic reticulum (ER) stress in human HeLa cells assessed as increase in red fluorescence intensity at 2 to 8 uM incubated for 48 hrs by ER-tracker red dye based fluorescence microscopic analysis; assay type: functional, cell-based; conditions: dose 2-8 µM
HeLa [35] = test: Induction of autophagy in human HeLa cells assessed as increase in number of autophagosomes incubated for 48 hrs by transmission electron microscopic analysis; assay type: functional, cell-based
Cell membrane [36] = test: Induction of mitochondrial membrane potential loss in human HeLa cells assessed as increase in green fluorescence at 2 to 8 uM incubated for 48 hrs by JC-1 staining based flow cytometry; conditions: dose 2-8 µM

CCOC(=O)C[C@H]1CSC[C@]1(C(=O)OCC)n1cnc2c(Cl)nc(Cl)nc21 (racemic)
Activity (HeLa [1]): Active
Activity (Cell membrane [2]): Active
Activity (HeLa [3]): Dose-Dependent Effect
Activity (HeLa [4]): Active
Activity (HeLa [5]): Active
inhibition [6]: Active
Activity [7]: Active
Activity (HeLa [8]): Active
Activity (HeLa [9]): Active
Activity (HeLa [10]): Active
Activity (HeLa [11]): Active
Activity (HeLa [12]): Dose-Dependent Effect
inhibition (HeLa [13]): Active
Activity (Cell membrane [14]): Active
inhibition (HeLa [15]): Dose-Dependent Effect
inhibition (HeLa [16]): Active
Activity (HeLa [17]): Active
Activity [18]: Active
Activity (HeLa [19]): Active
Activity (HeLa [20]): Dose-Dependent Effect
inhibition [21]: Active
Activity (HeLa [22]): Active
Activity (HeLa [23]): Active
Activity (HeLa [24]): Dose-Dependent Effect
Activity (HeLa [25]): inactive
Activity (Cell membrane [26]): Active
Activity (HeLa [27]): Active
Activity (HeLa [28]): Active
Activity (HeLa [29]): Active
Activity (HeLa [30]): Dose-Dependent Effect
Activity (HeLa [31]): Active
Activity (HeLa [32]): Active
Activity (HeLa [33]): Active
Activity (HeLa [34]): Active
Activity (HeLa [35]): Dose-Dependent Effect
Activity (Cell membrane [36]): Active

Source: ChEMBL document CHEMBL5523757, “Discovery, Synthesis, and Activity Evaluation of Novel Five-Membered Sulfur-Containing Heterocyclic Nucleosides as Potential Anticancer Agents In Vitro and In Vivo” (J Med Chem, 2024)
